Measurements reported in patent US20190101539A1, “METABOLOMIC BASED BIOMARKERS FOR COLON CANCER DETECTION” (UNIVERSITY OF SOUTHERN CALIFORNIA, priority 2015, published 2019).

Experiments:
[1] = Evaluation of stabilizing agents for FOCM metabolites; type: physicochemical; conditions: 0.5% ascorbic acid, compared with other stabilizing agents
Excerpt: A major challenge with the FOCM intermediates during storage and analysis is their poor stability. The metabolites may be unstable through environment exposures such as heat, light and/or oxygen, thereby posing great challenge to determine the actual concentration of these metabolites at the time of collection. These FOCM intermediates make the metabolomics-based assay a very powerful tool to a more accurate quantification. The instability of these vitamins pose a great challenge due to their poor stability in the presence of metallic ions, oxidative species and light which catalyze most of the degradation reactions. Most of the vitamin B and folate metabolites degrade due as a consequence of photooxidation reactions which becomes a challenge for assay development necessitating the provision of the most suitable conditions for storage and processing of the plasma samples in order to produce a highly sensitive and reliable assay method. In order to address the instability issues during sample processing, the analysis will be conducted on at 4° C. using black eppendorf tubes. […] Consistent metabolites extraction is achieved using protein precipitation approach followed by the supernatant evaporated to dryness under nitrogen. […]

[2] = Degradation kinetics of FOCM metabolites at storage temperatures, Arrhenius model; type: physicochemical; set-up: Ln (K) / Calculated Ln (K) / Calculated K: unit not given here; conditions: for Degradation constant, K: first order, days 0-42
Method: This will further enhance the clinical prediction ability. The stability of these plasma vitamin B and folate metabolites were studied to validate the reliability of the assay and the time-dependent effect on the concentration of the analytes in patient samples. Using freshly made samples and assessing their degradation over time, we have established an Arrhenius models that will allow the team to extrapolate the metabolite level over time.
The stability of these metabolites were assessed using accelerated stress conditions which involves determining degradation rates of analytes through monitoring changes in time of their concentration in solution at several predetermined storage temperatures and then analyzing the results in terms of the Arrhenius equation: […]
For a valid Arrhenius model to be developed, a linear plot determining the degradation rate of analyte at given storage temperatures against reciprocals of these temperatures is needed. The pre-exponential factor A, which may be obtained by extrapolating the straight line to zero value of the temperature reciprocal, appears to be affected by factors such as exposure to pollution^7 and light^8, relative humidity during the ageing, and the analytes. The activation energy, directly proportional to the slope of the straight line, represents a measure of sensitivity of the degradation rate of the studied property to temperature changes. The degradation rate of the analytes at ambient conditions can be estimated by extrapolating the Arrhenius plot for the analyte concentration to storage temperature. Combined with a kinetic equation describing changes of the concentration with time, this rate may then be used to estimate the life-expectancy of the analytes.
In order to estimate the degradation rate constant, k, at the storage temperature of the plasma samples (which is usually −80° C.), a degradation experiment was conducted for FOCM metabolites at ambient temperatures of 37° C., 25° C., 4° C. and −20° C. […] All degradation curves were assumed to be first order. All experimental samples were stored and quantified at days 0, 3, 7, 14, 21, 28 and 42 using the developed LCMS assay. The results below (for 4-pyridoxic acid) are an example of the data obtained for each of the FOCM metabolites.

[3] = −80 °C, extrapolated from Arrhenius model

SMILES: O=C1O[C@H]([C@@H](O)CO)C(O)=C1O [ascorbic acid]
- Stabilization of FOCM metabolites from oxidation [1]: more effective in stabilizing the FOCM metabolites from oxidation

SMILES: Cc1ncc(CO)c(C(=O)O)c1O [4-Pyridoxic acid]
- Ln (K) ([2]; 4 °C): −4.164
- Calculated K ([2]; 4 °C, Arrhenius model): 0.014
- Calculated Ln (K) ([2]; 4 °C, Arrhenius model): −4.302
- Degradation constant, K ([2]; 4 °C): 0.016
- Ln (K) ([2]; 25 °C): −4.019
- Calculated K ([2]; 25 °C, Arrhenius model): 0.019
- Calculated Ln (K) ([2]; 25 °C, Arrhenius model): −3.977
- Degradation constant, K ([2]; 25 °C): 0.018
- Ln (K) ([2]; 37 °C): −3.841
- Calculated K ([2]; 37 °C, Arrhenius model): 0.022
- Calculated Ln (K) ([2]; 37 °C, Arrhenius model): −3.810
- Degradation constant, K ([2]; 37 °C): 0.021
- A, Arrhenius pre-exponential factor ([2]; Arrhenius plot): 1.37
- Ln(A) ([2]; Arrhenius plot intercept): 0.3183
- Ln (K) ([2]; −20 °C): −4.806
- Calculated K ([2]; −20 °C, Arrhenius model): 0.009
- Calculated Ln (K) ([2]; −20 °C, Arrhenius model): −4.741
- Degradation constant, K ([2]; −20 °C): 0.008
- Calculated K [2, 3]: 0.002
- Calculated Ln (K) [2, 3]: −6.313
- E, activation energy ([2]; −slope*R of Arrhenius plot): 10.6 KJmol^−1
